We go through five compounds from patent US20070014739A1, “Compositions and methods for controlling biofilms and bacterial infections” (priority 2005, published 2007).

One data set relates to S. aureus. Conditions: U.S. Pat. No. 4,606,911; cited from earlier work.
A further data set concerns E. coli. Conditions: U.S. Pat. No. 4,606,911; cited from earlier work.
For data set [1], the system named is P. aeruginosa. Particulars: U.S. Pat. No. 4,606,911; cited from earlier work.
Data set [2] has as its system E. coli clinical strain UT189 against bladder epithelial cells. The experiment in a line: Binding to and invasion of bladder epithelial cells by E. coli. The format is cell-based. Conditions: 40 μg/ml, 60 minutes; separate experiments (n=4 to 7). The method, then:
The effect of test compounds on bacterial invasion of E. coli clinical strain UT189 was studied as described in Elsinghorst, et al. 1994, Methods Enzymol, 236:405-420; and Martinez et al., 2000, EMBO J., 19:2803-2812. Epithelial bladder cells were grown in plates. Asiatic acid, corosolic acid, or ursolic acid were added at concentrations of 10 μg/ml, 20 μg/ml, or 40 μg/ml to bacteria and epithelial cells for approximately 5, 15, 30, or 60 minutes with approximately 10^7 CFU of E. coli. Binding was assessed at time zero and invasion was assessed at approximately 5, 15, 30, or 60 minutes from completing the mixture of compound, bacteria, and epithelial cells. As a control ethanol was added to cells to a final concentration of 0.1%. The effect of bacterial viability and bacterial adherence during the infection period was evaluated according to the methods described in Martinez et al., 2000, EMBO J., 19:2803-2812.

The test system of a further data set is E. coli UT189[pCOMGFP]. In words: Biofilm pods (IBCs) in bladders of infected mice, intravesical compound, confocal microscopy. It is filed as in vivo, Escherichia coli. Particulars: experiment 1: C3H/HeN mice, 40 μg/ml intravesical with 30 min pre-incubation, 10^8 CFU, five hours; vs controls. The protocol: The procedures in this example has been previously reported by Justice, S. et al. Differentiation and development pathways of uropathogenic Escherichia coli in urinary tract pathogenesis. PNAS, 2004, 101(5), p. 1333-1338. Briefly, E. coli UT189[pCOMGFP] was prepared after retrieval from frozen stocks by inoculating appropriately in LB medium statically for approximately 20 hours. Cells were harvested and suspended in 1 ml of PBS. Cells were diluted appropriately to achieve approximately a 10^8 CFU or 10^7 CFU input into C3H/HeN mice (2 mice per group).
Mice were deprived of water for approximately two hours. In experiment 1, all mice were anesthetized with 0.15 cc ketamine cocktail. In experiment 2, all mice were anesthetized with isofluorane. In experiment 1, urine was dispelled from the bladders and approximately 40 μg/ml of test compound or an appropriate amount of ethanol as control was introduced into the bladders via catheterization of the urethra using a tubing coated tuberculin syringe. 30 minutes was allowed to elapse. In experiment 2, bladders were not pre-incubated with test compounds. Bladders were then expelled and an inoculum of 10^8 CFU (Experiment 1) or 10^7 CFU (Experiment 2) of E. coli containing 40 μg/ml of test compound or equivalent amount of ethanol as controls were introduced into the bladders as indicated above.
In experiment 1 five hours elapsed and in experiment 2 six hours elapsed, and then mice were anesthetized and sacrificed appropriately. The bladders were removed, bisected, stretched, and fixed in 3% paraformaldehyde for 1 hour at room temperature. Bladders were then permeabilized in 0.01% Triton/PBS for 10 minutes and counter stained with TOPRO3 (Molecular Probes) for 10 minutes for visualization by confocal microscopy. Bladders were mounted on Prolong antifade (Molecular Probes).

In the next data set the test system is S. mutans. Conditions: U.S. Pat. No. 4,606,911; cited from earlier work.
For another data set, the system named is S. salivaris. Particulars: U.S. Pat. No. 4,606,911; cited from earlier work.
Data set [3] has as its system P. aeruginosa. In words: Biofilm inhibition, comparison of scaffold modifications. The format is cell-based. Conditions: effect of modifying corosolic acid at C-19, or at C-3 and C-20.
For data set [4], the system named is P. aeruginosa strain PAO1. The experiment in a line: Rotating disk reactor (RDR) biofilm test with and without tobramycin, culturable bacteria. The format is cell-based, Pseudomonas aeruginosa. Conditions: test compound 100 μg/ml 24 h, average of three days. The protocol:
Biofilm formation of P. aeruginosa was evaluated using a standardized biofilm method with a rotating disk reactor (RDR). This method provides a model resembling the formation of biofilms in cystic fibrosis patients. The rotating disk reactor consists of a one-liter glass beaker fitted with a drain spout. The bottom of the vessel contains a magnetically driven rotor with six 1.27 cm diameter coupons constructed from polystyrene. The rotor consists of a star-head magnetic stir bar upon which a disk was affixed to hold the coupons. The vessel with the stir bar was placed on a stir plate and rotated to provide fluid shear. A nutrient solution (AB Trace Medium with 0.3 mM glucose, see Table 3 below for composition) was added through a stopper in the top of the reactor at a flow rate of 5 ml/min. The reactor volume was approximately 180 ml and varied slightly between reactors depending on the placement of the drain spout and the rotational speed of the rotor. At a volume of 180 ml, the residence time of the reactors was 36 minutes. The reactors were operated at room temperature (c.a. 26° C.).
For each test, two RDRs were operated in parallel with one receiving test compound and the other serving as an untreated control. The RDRs were sterilized by autoclave, then filled with sterile medium and inoculated with P. aeruginosa strain PAO1. The reactors were then incubated at room temperature in batch mode (no medium flow) for a period of 24 hours, after which the flow was initiated for a further 24 hour incubation. Test compounds were dissolved in 10 ml ethanol to achieve a concentration of 1.8 mg/ml. After the 48 hours of biofilm development described above, the 10 ml of ethanol containing the test compounds were added to the reactor to achieve a final concentration of approximately 50, 100, or 200 μg/ml. Control reactors received 10 ml of ethanol. The reactors were then incubated for an additional 24 hours in batch (no flow) mode. After this incubation period, the six coupons were removed from each reactor and placed in 12-well polystyrene tissue culture plates with wells containing either 2 ml of a 100 μg/ml tobramycin solution or 2 ml of phosphate-buffered saline (PBS). These plates were incubated at room temperature for two hours. The coupons were then rinsed by three transfers to plates containing 2 ml of fresh PBS. For each two RDR reactors run in parallel, four sets of three coupons were obtained: one set with no test compound treatment and no tobramycin treatment, one set with no test compound treatment and tobramycin treatment, one set treated with a test compound treatment and no tobramycin treatment, and one set treated with a test compound treatment and tobramycin. After rinsing, one coupon of each set of three was stained with a LIVE/DEAD® BacLight™ Bacterial Viability Kit (Molecular Probes, Eugene Oreg.) and imaged using epifluorescent microscopy. The remaining two coupons were placed in 10 ml of PBS and sonicated for five minutes to remove and disperse biofilm cells. The resulting bacterial suspensions were then serially diluted in PBS and plated on tryptic soy agar plates for enumeration of culturable bacteria. The plates were incubated for 24 hours at 37° C. before colony forming units (CFU) were determined.
The results are averages from experiments performed on three separate days for each test compound. The values reported are as loglo CFU.

The nature of data set [5]: Bladder concentrations in rats (pharmacokinetic study). Conditions: rat, in vivo; rats, 50 mg/kg oral single bolus in 50% Labrasol, at 24 hours; read-out: Concentrations in the bladder. The protocol: Pharmacokinetic studies of asiatic acid and madecassic acid in rats were performed separately. Asiatic acid and madecassic acid were evaluated at 50 mg/kg (oral). Two animals were assigned to the each group. Prior to dosing, a baseline blood sample was taken from each animal. At time zero for asiatic acid and madecassic acid, a single bolus dose in 50% Labrasol (Gattefosse) was given to each animal. Bladders were analyzed at 24 hours. Concentrations of both asiatic acid and madecassic acid in the bladder were approximately 30 μg/g at 24 hours.

For data set [6], the system named is E. coli laboratory strain JM109. In words: Inhibition of biofilm formation, crystal violet, 96 well plates. It is filed as cell-based. Conditions: Escherichia coli, JM 109, compared to the controls, read-out: inhibited biofilm formation of the JM109 strain. The protocol:
Biofilm inhibition experiments were conducted using an assay adapted from the reported protocol described in Pratt and Kolter, 1998, Molecular Microbiology, 30: 285-293; Li et al., 2001, J. Bacteriol., 183: 897-908. E. coli clinical strain UT189 was grown in LB in 96 well plates at room temperature for one or two days without shaking. E. coli laboratory strain JM109 was grown in LB plus 0.2% glucose in 96 well plates at room temperature for one day without shaking. To quantify the biofilm mass, the suspension culture was poured out and the biofilm was washed three times with water. The biofilm was stained with 0.1% crystal violet for 20 minutes. The plates were then washed three times with water. OD reading at 540 nm was measured to quantify the biofilm mass at the bottom of the wells. Then 95% ethanol was added to dissolve the dye at the bottom and on the wall and the OD reading at 540 nm was measured to quantify the total biofilm mass. To study the overall effect of the compounds (3.6 mg/mL in 100% ethanol as stock solution), it was added with the inoculation and a time course of biofilm mass was measured. Appropriate amounts of 100% ethanol were added to each sample to eliminate the effect of solvent. Each condition had 3-4 replicates on each plate and was performed over multiple days.

For the compound `C[C@@H]1CC[C@]2(C(=O)O)CC[C@]3(C)C(=CCC4[C@@]5(C)CC[C@H](O)C(C)(C)C5CC[C@]43C)C2[C@H]1C` (stereo partly shown) [Ursolic acid], in the data set on S. aureus, the “growth inhibition of S. aureus” value was “failed to inhibit”. In the data set with E. coli, the “growth inhibition of E. coli” value is “failed to inhibit”. Also, the “growth inhibition of P. aeruginosa” value in the data set with P. aeruginosa [1] is on record as “failed to inhibit”. The “reduced invasion of E. coli into bladder epithelial cells” value in data set [2] is 76%. For the same compound, the “reduction in biofilm pods or IBCs in the bladders of mice” value with E. coli UT189[pCOMGFP] is reported as 70%. The “growth inhibition of S. mutans” value in the data set with S. mutans was “completely inhibited”. For the same compound, in the data set on S. salivaris, the “growth inhibition of S. salivaris” value is listed as “completely inhibited”.
Consider `CC1(C)CC[C@]2(C(=O)O)CC[C@]3(C)C(=CC[C@@H]4[C@@]5(C)CC[C@H](O)C(C)(C)[C@@H]5CC[C@]43C)[C@@H]2C1` [Oleanolic acid], for which the “growth inhibition of S. aureus” value in the data set on S. aureus is on record as “failed to inhibit”. Further, in the data set on E. coli, the “growth inhibition of E. coli” value was “failed to inhibit”. The “growth inhibition of P. aeruginosa” value with P. aeruginosa [1] is “failed to inhibit”. Moreover, the “growth inhibition of S. mutans” value with S. mutans was “incomplete inhibition”. In the data set on S. salivaris, the “growth inhibition of S. salivaris” value was “incomplete inhibition”.
In the case of `C[C@@H]1[C@H]2C3=CCC4[C@@]5(C)CC[C@H](OC(=O)/C=C\c6ccc(O)cc6)C(C)(C)C5CC[C@@]4(C)[C@]3(C)CC[C@@]2(C(=O)O)CC[C@]1(C)O` (stereo partly drawn) [3-[4-Hydroxycinnamoyl (cis-)], 20-hydroxy-ursolic acid], the “biofilm inhibition against P. aeruginosa relative to corosolic acid” value in the data set with P. aeruginosa [3] is “increases biofilm inhibition”.
Turning to `C[C@@H]1CC[C@]2(C(=O)O)CC[C@]3(C)C(=CC[C@@H]4[C@@]5(C)C[C@@H](O)[C@H](O)C(C)(C)[C@@H]5CC[C@]43C)[C@@H]2[C@]1(C)O` [Tormentic acid], the “biofilm inhibition against P. aeruginosa relative to corosolic acid” value with P. aeruginosa [3] was “slightly reduces the biofilm inhibition”.
Take `C[C@H]1[C@H](C)CC[C@]2(C(=O)O)CC[C@]3(C)C(=CC[C@@H]4[C@@]5(C)C[C@@H](O)[C@H](O)[C@@](C)(CO)[C@@H]5[C@H](O)C[C@]43C)[C@H]12` [Madecassic acid]: in [4] (no tobramycin), the “CFU, Test Compound” value came out at 7.5 loglo CFU. Besides, the “CFU, Tobramycin and Test Compound” value in data set [4] (then tobramycin 100 μg/ml 2 h) is on record as 5.5 loglo CFU. For the same compound, in data set [5], the concentration at 24 h is about 30000 ng/g. In addition, the inhibition at 5 µg/mL in data set [6] (5 ug/ml) is about 60%. In data set [6] (10 ug/ml), the inhibition at 10 µg/mL is about 75%.
